# From patent US20150216182A1, “COMPOSITIONS AND METHODS OF THE ATTRACTION AND REPULSION OF INSECTS” (Olfactor Laboratories, Inc., priority 2012, published 2015)
# “Also recorded” adds a separate entry of the source. Structures can show the parent of a compound that is named as a salt. Where two headings read alike, the source gives them in different places.
# Tests used:
# [1] = test system: cpB and cpC neurons; assay: extracellular single-sensillum electrophysiology: beta activators; assay type: in vivo, Aedes aegypti; settings: for Class A (beta activator, individual component): Table 15, single component alone, Beta Actv; for beta activator (stimulates cpB and cpC neuronal activity): single compound
# Text: Three types of CO2-responsive neurons reside in the maxillary palp of mosquitoes. These include cpA, cpB and cpC neurons. […] These neurons produce spikes with much lower amplitude than those produced by cpA neurons. Although the activity from cpB and cpC neurons cannot easily be distinguished from one another, their collective activity can be distinguished from cpA neurons due to their characteristic spikes. This is useful in the identification of compounds and compositions that only activate or inhibit cpB and cpC neurons or compounds and compositions that activate or inhibit both.
# Carbon dioxide receptor neurons are housed within the basiconic sensilla of the mosquito maxillary palp. While activity from cpA neurons produces the largest amplitude spike, cpB and cpC neurons present in this region are also responsive to skin odors. Activity from these neurons can also be detected through the electrophysiological methods described in Example 1.
# Although the activity from cpB and cpC neurons cannot easily be distinguished from one another, their collective activity can be distinguished from cpA neurons due to their production of spikes with much lower amplitude than those produced by cpA neurons.
# [2] = test system: larvae; assay: larvicidal activity assay; assay type: in vivo; settings: for pest or weed control at 100 ppm: read-out: % Lethality at 100 ppm; for pest or weed control at 0.25 %: read-out: % Lethality with 0.25% compound conc.
# Procedure: A 6-well plate (Corning Life Sciences, Tewksbury, Mass.) is used to test a compound's larvicidal activity. […] After a 24 hour exposure, the number of dead larvae are counted and recorded.
# The results are presented in Table 17 as % lethality (the number of dead larvae divided by the total number of larvae).
# [3] = test system: bed bugs; assay: bed bug luring assay; assay type: in vivo; settings: cottonball with 100 microliters solution, total 100 mg compound(s), 10 bed bugs, overnight
# Procedure: Assays were conducted to measure the ability of compounds and compound combinations to attract bed bugs. A testing arena habitat comprising a small plastic container was placed inside of a larger, secondary container. The top half inch was removed from two bathroom sized solo cups and each cup was placed on opposite sides of the testing arena habitat, one inch away from the wall. Each outer part of the cup was textured using sandpaper, as bed bugs cannot climb smooth surfaces. A paper towel was used to line the floor of the testing arena habitat. The top, removed portion of one of the solo cups was placed mouth side down in the center of the arena. In one of the cups, a cottonball was placed and treated with 100 microliters of compound or compound combination solution [comprising a total of 100 mg of compound(s).] 10 bed bugs were placed within the center cut off cup top and the testing arena habitat was covered and placed within a dark, climate controlled room overnight. The next day, the number of bed bugs that crawled into the baited cup were recorded and the % attractancy was calculated as the percentage of bugs that crawled into the baited cup as compared to the total number of bed bugs. In the Table, “Att” refers to attractancy and “Cmpd” refers to compound.
# [4] = test system: bed bugs (Cimex lectularius); assay: bed bug repellency assay; assay type: in vivo; settings: compound or combination on filter paper harborage, ten bed bugs
# Summary of the method: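 Ten Cimex lectularius per talc-lined petri dish chose between folded filter-paper harborages treated with isopropyl alcohol alone or compound in isopropyl alcohol […], dried before use. Bugs moved freely 5 min; occupancy beneath each tent recorded, with a solvent-only pairing as control.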
# [5] = test system: female mosquitoes; assay: whole plant or invertebrate; settings: 2 h; for mortality at 200 µg/mL: read-out: % mortality with 0.2 mg/ml; for mortality at 2000 µg/mL: read-out: % mortality with 2 mg/ml
# [6] = test system: cpA neurons; assay: extracellular single-sensillum electrophysiology: activation of cpA neuronal activity; settings: for Class: Table 6, single compounds, increase over baseline cpA neuronal activity; for Comp A Class / Comp B Class: Table 9; for Comp A Class: component A tested individually; for Comp B Class: component B tested individually; for Class B (activator class of the individual component): Table 15, single component alone, Mod Actv
# [7] = test system: Aedes aegypti mosquitoes; assay: netsphere assay; assay type: in vivo; settings: baited BG-Sentinel trap, overnight collection; FIG. 3
# Procedure: The netsphere assay was conducted in a semi-field containment area. The containment area was 1,000 square feet in size and environmental cues such as temperature, humidity, lighting and airflow were controlled to replicate conditions that Aedes aegypti mosquitoes would encounter in the wild. The containment area was conditioned for 2 hours prior to experimentation to allow for equalization of environmental conditions. Fifty female and five male mosquitoes were then released into the chamber and given one hour to acclimate to the environment. Following this, a BG-Sentinel trap (Biogents AG, Regensburg, Germany) was baited with either cyclopentanone, 2-pentanone or 2,4-lutidine and placed in the chamber in the presence of a non-baited BG-Sentinel (as a negative control for trap attraction). The collection was allowed to proceed overnight during which lighting conditions in the chamber were set to mimic those of starlight. The following day, mosquitoes caught in the trap were frozen at −20° C. and counted. These counts were compared to control experiments where CO2 from a tank, at a flow rate of 250 ml/min, was used as bait.
# [8] = test system: Aedes aegypti; assay: landing assay; assay type: in vivo; settings: mesh treated with 1% in acetone, FIG. 2; for number of landings: 5 minute time course
# Text: Behavior assays were developed to aid in the evaluation of compounds and compositions of the present invention. These assays include the landing assay and the netsphere assay. These assays were utilized to determine the effectiveness of said compounds and compositions with regard to attracting or repelling mosquitoes of the species Aedes aegypti. Due to the highly conserved nature of the carbon dioxide receptor across the order Diptera, the results obtained for Aedes aegypti are likely to be intuitive with regard to other members of the mosquito family Culicidae as well as with regard to other dipteran family members.
# The landing assay is an assay used to test for attraction toward human skin. A human gloved hand with an opening cutout protected by 2 layers of mesh was inserted into a 12×12×12 inch cage of female mosquitoes. The first layer of mesh was used to protect the human from chemical contact as well as mosquito contact. A second layer of mesh was treated with a chemical compound or composition that had been dissolved at a concentration of 1% in acetone and allowed to dry on said mesh for three minutes. This second layer of mesh was placed on top of the first mesh layer. The two mesh layers were separated by outer magnetic strips to hold the layers in place on the glove. This experimental design allows the test subjects, starved female mosquitoes, to be exposed to human skin odors as well as the compound or composition concurrently. The cage contained 30 female and 3 male mosquitoes. The landing of mosquitoes on the treated surface was videotaped over a 5 minute time course and the number of landings during that time period was recorded. Mesh treated with acetone alone was used as a negative control. This experiment was done in triplicate for each compound or composition tested. The results from one such experiment are pictured in FIG. 2.
# [9] = test system: female mosquitoes; settings: in vivo
# [10] = 0.25% compound, 24 hour exposure, dead larvae / total larvae
# [11] = 100 ppm compound, 24 hour exposure, dead larvae / total larvae
Structure (SMILES),"Class A (beta activator, individual component) [1]",beta activator (stimulates cpB and cpC neuronal activity) [1],% Att (bed bug attractancy) [3] [%],% Rep (bed bug repellency) [4] [%],mortality at 200 µg/mL [5] [%],mortality at 2000 µg/mL [5] [%],Class [6],activator class of single compound [6],"pest or weed control at 0.25 % [2, 10] [%]","pest or weed control at 100 ppm [2, 11] [%]",behaviour in netsphere assay (attractant or repellent) [7],number of landings [8] [landings],behaviour in landing assay (lure or repellent) [8],other results
"CCCCCCOC=O [OLI0097, hexyl formate]",Beta,beta activators,30,44,0,0,–,–,–,–,–,–,–,pest or weed control at 100 ppm ([2]; 24 h): 0%; pest or weed control at 0.25 % ([2]; 24 h): 5%
"COC(=O)CCC(C)=O [OLI0027, methyl levulinate]",Beta,beta activators,10,20,0,0,Moderate Activator (Moderate activators yield an increase in neuronal activity that is between 40 and 60 spk/sec over baseline neuronal activity),moderate cpA activator,50,0,–,–,–,Comp A Class [6]: Mod
"COc1cnccn1 [OLI0003, 2-methoxypyrazine]",–,–,30,22,0,0,Strong Activator (strong activators yield an increase in activity that is >60 spk/sec over baseline neuronal activity),–,100,0,–,–,–,–
"CCCC(C)=O [OLI0018, 2-pentanone]",–,–,30,–,0,0,Moderate Activator (Moderate activators yield an increase in neuronal activity that is between 40 and 60 spk/sec over baseline neuronal activity),–,–,–,act as attractants; also recorded: attract mosquitoes,37,act as lures,Comp A Class [6]: Mod; Comp B Class [6]: Mod; Class B (activator class of the individual component) [6]: Mod; pest or weed control at 100 ppm ([2]; 24 h): 0%; pest or weed control at 0.25 % ([2]; 24 h): 0%
"CCC(=O)OCCC(C)C [OLI0099, isoamyl propionate]",Beta,beta activators,10,17,0,0,–,–,0,0,–,–,–,–
"CCc1cnccn1 [OLI0002, 2-ethylpyrazine]",–,–,–,49,0,0,Strong Activator (strong activators yield an increase in activity that is >60 spk/sec over baseline neuronal activity),activator,50,0,–,12,repellent,–
"Cc1ccnc(C)c1 [OLI0001, 2,4-lutidine]",–,–,–,39,0,0,Strong Activator (strong activators yield an increase in activity that is >60 spk/sec over baseline neuronal activity),strong activator (spike rate of 60-100 spk/sec over the baseline activity of the neuron),100,0,acted as a repellent,–,–,effect on CO2-receptor activity (FIG. 1) ([6]; 1% concentration in paraffin oil): activator
"CSC(C)=O [OLI0025, methanethiol acetate]",–,–,20,–,–,–,Moderate Activator (Moderate activators yield an increase in neuronal activity that is between 40 and 60 spk/sec over baseline neuronal activity),–,–,–,–,–,–,"Comp B Class [6]: Mod; Class B (activator class of the individual component) [6]: Mod; % Lethality with 0.25% compound conc. [2, 10]: 100% lethal; % Lethality at 100 ppm [2, 11]: 0% lethal; % mortality with 0.2 mg/ml [9]: 0%; % mortality with 2 mg/ml [9]: 0%"
"O=C1CCCC1 [OLI0008, cyclopentanone]",–,–,50,–,0,0,Strong Activator (strong activators yield an increase in activity that is >60 spk/sec over baseline neuronal activity),–,85,0,act as attractants; also recorded: attract mosquitoes,39,act as lures,–
